Results taken from ChEMBL document CHEMBL5543117, “Novel TLR4-Activating Vaccine Adjuvant Enhances the Production of Enterococcus faecium-binding Antibodies” (J Med Chem, 2024).
One block for each molecule: values may come before it. The source made the active and inactive calls. No cut-off for these calls is given here.

How the values were obtained:
Oryctolagus cuniculus [1] = assay: Adjuvant activity in Enterococcus faecium PpiC-immunized New Zealand rabbit model assessed as production of PpiC specific antibody in sera at 1:50 dilutions at 70.2 ug administered on day 0, 14 ug on day 7 and 14 and measured after 28 days by absorbance based analysis; assay type: functional, organism-based; conditions: time 28.0 day
Oryctolagus cuniculus [2] = assay: Adjuvant activity in Enterococcus faecium PpiC-immunized New Zealand rabbit model assessed as production of PpiC specific antibody in sera at 1:25600 dilutions at 70.2 ug administered on day 0, 14 ug on day 7 and 14 and measured after 28 days absorbance based analysis; assay type: functional, organism-based; conditions: time 28.0 day
Oryctolagus cuniculus [3] = assay: Adjuvant activity in Enterococcus faecium PpiC-immunized New Zealand rabbit model assessed as production of PpiC specific antibody in sera at 70.2 ug administered on day 0, 14 ug on day 7 and 14 and measured after 28 days by ELISA; assay type: functional, organism-based; conditions: time 28.0 day
Oryctolagus cuniculus [4] = assay: Adjuvant activity in Enterococcus faecium PpiC-immunized New Zealand rabbit model assessed as production of PpiC specific antibody in terminal bleed sera at 1:1600 dilutions at 70.2 ug administered on day 0, 14 ug on day 7 and 14 and measured after 28 days by ELISA; assay type: functional, organism-based; conditions: time 28.0 day
Mus musculus [5] = assay: Adjuvant activity in OVA-immunized C57BL/6J mouse model assessed as increase in IgG levels at 10 ug, sc administered on day 0 and as booster dose on day 21 and measured after 42 days by ELISA; assay type: functional, organism-based; conditions: dose 10.0 µg, time 42.0 day
Oryctolagus cuniculus [6] = assay: Adjuvant activity in Enterococcus faecium PpiC-immunized New Zealand rabbit model assessed as production of PpiC specific antibody in sera at 1:100 dilutions at 70.2 ug administered on day 0, 14 ug on day 7 and 14 and measured after 28 days by absorbance based analysis; assay type: functional, organism-based; conditions: time 28.0 day
Mus musculus [7] = assay: Adjuvant activity in OVA-immunized C57BL/6J mouse model assessed as increase in IgG1 levels at 10 ug, sc administered on day 0 and as booster dose on day 21 and measured after 42 days by ELISA; assay type: functional, organism-based; conditions: dose 10.0 µg, time 42.0 day
Mus musculus [8] = assay: Adjuvant activity in OVA-immunized C57BL/6J mouse model assessed as increase in IgG2c levels at 10 ug, sc administered on day 0 and as booster dose on day 21 and measured after 42 days by ELISA; assay type: functional, organism-based; conditions: dose 10.0 µg, time 42.0 day
Oryctolagus cuniculus [9] = assay: (§1) Adjuvant activity in Enterococcus faecium PpiC-immunized New Zealand rabbit model assessed as antibody production by measuring increase in vancomycin resistant Enterococcus faecium 11236/1 specific antibodies at 70.2 ug administered on day 0, 14 ug on day 7 and 14 and measured after 28 days by Whole-bacterial cell ELISA; assay type: functional, organism-based; conditions: time 28.0 day
Mus musculus [10] = assay: Adjuvant activity in OVA-immunized C57BL/6J mouse model assessed as increase in IgG2b levels at 10 ug, sc administered on day 0 and as booster dose on day 21 and measured after 42 days by ELISA; assay type: functional, organism-based; conditions: dose 10.0 µg, time 42.0 day
THP1-Xblue [11] = assay: Immunostimulatory activity in human THP1-Xblue cells assessed as increase in IL-6 release incubated for 16 to 18 hrs by ELISA; assay type: functional, cell-based; conditions: dose 0.1-10 µM, time 16-18 hrs
[12] = target: Toll-like receptor 4 (Homo sapiens) (UniProt O00206); assay: Agonist activity at TLR4 in human THP1-Xblue cells assessed as increase in SEAP level at 0.1 to 10 uM incubated for 16 to 18 hrs by SEAP reporter gene based Quanti-Blue assay; assay type: cell-based; conditions: filed as agonist, dose 0.1-10 µM, time 16-18 hrs
Toll-like receptor 4 (Homo sapiens), sequence (O00206 whole entry): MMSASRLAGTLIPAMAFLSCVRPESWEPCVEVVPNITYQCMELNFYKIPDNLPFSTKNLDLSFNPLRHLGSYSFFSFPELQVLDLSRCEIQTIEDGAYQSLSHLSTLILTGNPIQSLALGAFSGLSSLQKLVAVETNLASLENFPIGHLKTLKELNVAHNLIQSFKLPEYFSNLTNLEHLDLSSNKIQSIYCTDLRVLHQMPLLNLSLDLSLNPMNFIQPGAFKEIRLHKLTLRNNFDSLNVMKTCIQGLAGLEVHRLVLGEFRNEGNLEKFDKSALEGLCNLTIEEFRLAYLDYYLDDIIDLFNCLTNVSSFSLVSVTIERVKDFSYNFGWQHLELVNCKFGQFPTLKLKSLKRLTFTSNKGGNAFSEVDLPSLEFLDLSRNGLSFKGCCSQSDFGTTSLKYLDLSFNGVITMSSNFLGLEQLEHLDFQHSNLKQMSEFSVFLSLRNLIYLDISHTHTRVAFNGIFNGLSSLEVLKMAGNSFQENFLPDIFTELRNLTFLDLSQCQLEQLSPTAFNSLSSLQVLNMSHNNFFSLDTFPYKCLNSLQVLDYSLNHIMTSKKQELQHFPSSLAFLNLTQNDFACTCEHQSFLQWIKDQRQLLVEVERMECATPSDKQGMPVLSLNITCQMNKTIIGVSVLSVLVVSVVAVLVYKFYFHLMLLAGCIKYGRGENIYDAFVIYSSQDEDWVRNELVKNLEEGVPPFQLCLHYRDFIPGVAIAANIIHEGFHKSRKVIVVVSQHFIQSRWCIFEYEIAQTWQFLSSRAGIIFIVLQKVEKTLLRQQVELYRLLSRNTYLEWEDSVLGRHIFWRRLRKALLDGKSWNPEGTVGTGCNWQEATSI

THP1-Xblue [13] = assay: Activation of TRAM/TRIF pathway in human THP1-Xblue cells assessed as increase in IRF3 phosphorylation by Western blot analysis; assay type: cell-based
THP1-Xblue [14] = assay: Activation of TRAM/TRIF pathway in human THP1-Xblue cells assessed as induction of phosphorylated IRF3 nuclear translocation by immunofluorescence analysis; assay type: cell-based
[15] = target: Transcription factor p65 (Homo sapiens) (UniProt Q04206); assay: Induction of NFkappaB p65 nuclear translocation in human THP1-Xblue cells assessed as percentage of positive nuclei at 10 uM measured after 120 mins by Hoechst 33342 staining based immunofluorescence analysis (reference value: 0%); assay type: cell-based
Transcription factor p65 (Homo sapiens), sequence (Q04206 whole entry): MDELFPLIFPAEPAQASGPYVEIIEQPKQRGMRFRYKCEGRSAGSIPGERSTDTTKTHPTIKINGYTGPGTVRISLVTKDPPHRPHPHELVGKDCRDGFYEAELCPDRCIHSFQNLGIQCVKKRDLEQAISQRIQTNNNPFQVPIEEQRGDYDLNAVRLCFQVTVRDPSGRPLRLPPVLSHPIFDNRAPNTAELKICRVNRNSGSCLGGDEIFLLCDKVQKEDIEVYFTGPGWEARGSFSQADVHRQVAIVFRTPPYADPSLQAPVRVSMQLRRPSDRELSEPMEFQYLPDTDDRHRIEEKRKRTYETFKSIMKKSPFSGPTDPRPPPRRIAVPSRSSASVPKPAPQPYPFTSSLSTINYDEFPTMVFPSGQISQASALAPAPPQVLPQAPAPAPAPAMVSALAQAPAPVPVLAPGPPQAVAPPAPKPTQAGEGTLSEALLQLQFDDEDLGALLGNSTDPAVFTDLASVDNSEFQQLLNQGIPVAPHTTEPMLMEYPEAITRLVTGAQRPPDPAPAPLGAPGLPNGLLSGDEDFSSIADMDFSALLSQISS

[16] = target: Toll-like receptor 4 (Homo sapiens) (UniProt O00206); assay: Agonist activity at TLR4 in human THP1-Xblue cells assessed as induction of p65 phosphorylation at 10 uM incubated for 120 to 240 mins by immunoblotting analysis; assay type: cell-based; conditions: filed as agonist, time 120-240 min
[17] = target: Toll-like receptor 2 (Homo sapiens) (UniProt O60603); assay: Agonist activity at human TLR2 in HEK-Blue hTLR2 cells assessed as increase in SEAP level at 0.1 to 25 uM incubated for 16 to 18 hrs by SEAP reporter gene based Quanti-Blue assay; assay type: cell-based; conditions: dose 0.1-25 µM, time 16-18 hrs
Toll-like receptor 2 (Homo sapiens), sequence (O60603 whole entry): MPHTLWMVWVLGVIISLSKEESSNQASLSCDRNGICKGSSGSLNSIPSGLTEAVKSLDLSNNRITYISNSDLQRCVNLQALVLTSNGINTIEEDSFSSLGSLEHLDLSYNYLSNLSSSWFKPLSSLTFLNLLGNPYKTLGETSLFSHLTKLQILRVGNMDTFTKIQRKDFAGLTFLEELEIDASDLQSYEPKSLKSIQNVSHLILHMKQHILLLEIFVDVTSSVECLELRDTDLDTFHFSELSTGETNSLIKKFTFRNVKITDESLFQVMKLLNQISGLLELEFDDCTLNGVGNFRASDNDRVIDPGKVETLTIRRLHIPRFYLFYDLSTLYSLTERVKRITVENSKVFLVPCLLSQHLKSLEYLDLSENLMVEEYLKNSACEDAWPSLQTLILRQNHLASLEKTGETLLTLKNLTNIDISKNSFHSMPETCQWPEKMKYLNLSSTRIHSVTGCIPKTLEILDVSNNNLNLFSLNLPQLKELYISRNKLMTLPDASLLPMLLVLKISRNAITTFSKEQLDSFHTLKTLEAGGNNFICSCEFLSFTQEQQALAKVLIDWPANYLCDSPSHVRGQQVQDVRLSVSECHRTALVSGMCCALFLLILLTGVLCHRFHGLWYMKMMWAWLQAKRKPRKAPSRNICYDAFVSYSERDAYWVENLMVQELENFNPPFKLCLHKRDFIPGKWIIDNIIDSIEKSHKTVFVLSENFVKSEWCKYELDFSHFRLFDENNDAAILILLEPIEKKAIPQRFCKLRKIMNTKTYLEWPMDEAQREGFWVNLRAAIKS

THP1-Xblue [18] = assay: Induction of IFN-beta production in human THP1-Xblue cells; assay type: functional, cell-based
[19] = Toxicity in OVA-immunized C57BL/6J mouse model assessed as change in AST level at 10 ug, SC administered on day 0 and as booster dose on day 20 and measured after 40 days; conditions: in vivo, 960 h, dose 10 µg, time 40 day
Oryctolagus cuniculus [20] = assay: Adjuvant activity in Enterococcus faecium PpiC-immunized New Zealand rabbit model assessed as production of PpiC specific antibody in sera at 1:50 dilutions at 38.4 ug administered on day 0, 7.7 ug on day 7 and 14 and measured after 28 days by absorbance based analysis; assay type: functional, organism-based; conditions: time 28.0 day
[21] = Cytotoxicity against human THP1-Xblue cells assessed as reduction in cell viability at 0.1 to 10 uM incubated for 16 to 18 hrs by MTT assay; assay type: toxicity, cell-based; conditions: dose lower 0.1 µM, time lower 16 hrs, dose upper 10 µM, time upper 18 hrs
[22] = target: Transcription factor p65 (Homo sapiens) (UniProt Q04206); assay: Induction of NFkappaB p65 nuclear translocation in human THP1-Xblue cells assessed as percentage of positive nuclei at 10 uM measured after 90 mins by Hoechst 33342 staining based immunofluorescence analysis relative to control (reference value: 0%); assay type: cell-based
THP1-Xblue [23] = assay: Immunostimulatory activity in human THP1-Xblue cells assessed as increase in IL-1beta release incubated for 16 to 18 hrs by ELISA; assay type: functional, cell-based; conditions: dose 0.1-10 µM, time 16-18 hrs
Oryctolagus cuniculus [24] = assay: Adjuvant activity in Enterococcus faecium PpiC-immunized New Zealand rabbit model assessed as production of PpiC specific antibody in sera at 38.4 ug administered on day 0, 7.7 ug on day 7 and 14 and measured after 28 days by ELISA; assay type: functional, organism-based; conditions: time 28.0 day
[25] = Toxicity in OVA-immunized C57BL/6J mouse model assessed as change in ALT level at 10 ug, SC administered on day 0 and as booster dose on day 20 and measured after 40 days; conditions: in vivo, 960 h, dose 10 µg, time 40 day
[26] = target: Toll-like receptor 4 (Homo sapiens) (UniProt O00206); assay: Agonist activity at human TLR4 in HEK-Blue hTLR4 cells assessed as increase in SEAP level incubated for 16 to 18 hrs by SEAP reporter gene based Quanti-Blue assay; assay type: cell-based; conditions: filed as agonist, dose 0.1-25 µM, time 16-18 hrs
Oryctolagus cuniculus [27] = assay: Adjuvant activity in Enterococcus faecium PpiC-immunized New Zealand rabbit model assessed as production of PpiC specific antibody in terminal bleed sera at 1:1600 dilutions at 38.4 ug administered on day 0, 7.7 ug on day 7 and 14 and measured after 28 days by ELISA; assay type: functional, organism-based; conditions: time 28.0 day
Oryctolagus cuniculus [28] = assay: Adjuvant activity in Enterococcus faecium PpiC-immunized New Zealand rabbit model assessed as production of PpiC specific antibody in sera at 1:25600 dilutions at 38.4 ug administered on day 0, 7.7 ug on day 7 and 14 and measured after 28 days by absorbance based analysis; assay type: functional, organism-based; conditions: time 28.0 day
Oryctolagus cuniculus [29] = assay: Adjuvant activity in Enterococcus faecium PpiC-immunized New Zealand rabbit model assessed as production of PpiC specific antibody in sera at 1:100 dilutions at 38.4 ug administered on day 0, 7.7 ug on day 7 and 14 and measured after 28 days by absorbance based analysis; assay type: functional, organism-based; conditions: time 28.0 day
[30] = Toxicity in OVA-immunized C57BL/6J mouse model assessed as change in body weight at 10 ug, SC administered on day 0 and measured after 4 days; conditions: in vivo, 96 h, dose 10 µg, time 4 day
[31] = target: Toll-like receptor 4 (Homo sapiens) (UniProt O00206); assay: Agonist activity at TLR4 in human THP1-Xblue cells assessed as induction of IkappaBalpha degradation at 10 uM incubated for 15 mins by immunoblotting analysis; assay type: cell-based; conditions: filed as agonist
Mus musculus [32] = assay: Effect on IgG2b levels in OVA-immunized C57BL/6J mouse model at 10 ug, sc administered on day 0 and as booster dose on day 21 and measured after 42 days by ELISA; assay type: functional, organism-based; conditions: dose 10.0 µg, time 42.0 day
Oryctolagus cuniculus [33] = assay: Induction of antibody production in New Zealand rabbit at 38.4 ug administered on day 0, 7.7 ug on day 7 and 14 and measured after 28 days by ELISA; assay type: functional, organism-based; conditions: time 28.0 day
THP1-Xblue [34] = assay: Immunostimulatory activity in human THP1-Xblue cells assessed as increase in TNF-alpha release incubated for 16 to 18 hrs by ELISA; assay type: functional, cell-based; conditions: dose 0.1-10 µM, time 16-18 hrs
THP1-Xblue [35] = assay: Activation of TRAM/TRIF pathway in human THP1-Xblue cells assessed as increase in STAT1 phosphorylation by Western blot analysis; assay type: cell-based
Oryctolagus cuniculus [36] = assay: as §1, with “at 38.2” for “at 70.2”, “0, 7.7” for “0, 14”; assay type: functional, organism-based; conditions: time 28.0 day
THP1-Xblue [37] = assay: Immunostimulatory activity in human THP1-Xblue cells assessed as increase in IL-6 release at 0.1 to 10 uM incubated for 16 to 18 hrs by ELISA; assay type: functional, cell-based; conditions: dose 0.1-10 µM, time 16-18 hrs

SMILES: CCCCCCCCCCCCCC(=O)O[C@H](CCCCCCCCCCC)CC(=O)N[C@H]1[C@H](OC[C@H]2OC(O)[C@H](NC(=O)C[C@H](O)CCCCCCCCCCC)[C@@H](OC(=O)C[C@H](O)CCCCCCCCCCC)[C@@H]2O)O[C@H](CO)[C@@H](OP(=O)(O)O)[C@@H]1OC(=O)C[C@@H](CCCCCCCCCCC)OC(=O)CCCCCCCCCCCCC (some centres not stated)
Activity (Oryctolagus cuniculus [1]): Active | Activity (Oryctolagus cuniculus [2]): Active | Activity (Oryctolagus cuniculus [3]): Active | Activity (Oryctolagus cuniculus [4]): Active | Activity (Mus musculus [5]): Active | Activity (Oryctolagus cuniculus [6]): Active | Activity (Mus musculus [7]): Active | Activity (Mus musculus [8]): Active | Activity (Oryctolagus cuniculus [9]): Active | Activity (Mus musculus [10]): Active

SMILES: CCCCCCCCCCCC(=O)N[C@H]1[C@H](OC(=O)CCCCCCCCCCC)O[C@H](COC(=O)C(C)(CO)CO)[C@@H](OP(=O)([O-])[O-])[C@@H]1OC(=O)CCCCCCCCCCC.[Na+].[Na+]
Activity (THP1-Xblue [11]): Dose-Dependent Effect | Activity [12]: Active | Activity (THP1-Xblue [13]): inactive | Activity (THP1-Xblue [14]): inactive | Activity [15]: 19% | Activity [16]: Active | Activity [17]: inactive | Activity (THP1-Xblue [18]): inactive | Activity [19]: Non-Toxic | Activity (Oryctolagus cuniculus [20]): Active | Activity [21]: Non-Toxic | Activity [22]: 15.3% | Activity (THP1-Xblue [23]): Dose-Dependent Effect | Activity (Oryctolagus cuniculus [24]): Active | Activity [25]: Non-Toxic | Activity (Mus musculus [5]): Active | Activity [26]: Active | Activity (Oryctolagus cuniculus [27]): Active | Activity (Oryctolagus cuniculus [28]): Active | Activity (Oryctolagus cuniculus [29]): Active | Activity [30]: Non-Toxic | Activity [31]: Active | Activity (Mus musculus [32]): inactive | Activity (Oryctolagus cuniculus [33]): inactive | Activity (THP1-Xblue [34]): Dose-Dependent Effect | Activity (THP1-Xblue [35]): inactive | Activity (Mus musculus [7]): Active | Activity (Oryctolagus cuniculus [36]): Active | Activity (Mus musculus [8]): Active

Activity [15]: 1.8% | Activity [22]: 1.3%
SMILES: CCCCCCCCCCCC(=O)N[C@H]1[C@H](OC(=O)CCCCCCCCCCC)O[C@H](CO)[C@@H](OP(=O)(O)O)[C@@H]1OC(=O)CCCCCCCCCCC
Activity (THP1-Xblue [37]): inactive
